Where a name gives a salt, the structure may show the parent alone. Read-outs that look alike come from different tables or passages of the source.
Legend:
NCI-H1417 cells = assay: In vitro cell proliferation detection (CellTiter-Glo, 7 days); format: cell-based
LSD1 = LSD1 (Homo sapiens (Human), UniProt O60341); assay: LSD1 enzyme activity detection (HTRF); format: biochemical
[1] = read-out: Inhibition of enzymatic activity of LSD1 IC50
[2] = HTRF, H3K4me1 substrate, read-out: Inhibition of enzymatic activity of LSD1 IC50
[3] = Homo sapiens, 168 h, NCI-H1417 cells, 7 days, CellTiter-Glo, read-out: NCI-H1417 proliferation inhibition IC50

Row | IC50 (LSD1; [2]) | IC50 (NCI-H1417 cells; [3]) | Compound | further results
1 | 49.9 nM | 104 nM | COc1ccc(-c2c(O)cc(N3CCN(C)CC3)nc2-c2ccc(C#N)c(F)c2)cc1F [Example 15, 2-fluoro-4-(3-(3-fluoro-4-methoxyphenyl)-4-hydroxy-6-(4-methylpiperazin-1-yl)pyridin-2-yl)benzonitrile] | 
2 | 15.2 ± 3.7 nM | 38 nM | CNC1CCCN(c2cc(O)c(-c3ccc(OC)c(F)c3)c(-c3ccc(C#N)c(F)c3)n2)C1 (stereo not drawn) [Example 16, 2-fluoro-4-(3-(3-fluoro-4-methoxyphenyl)-4-hydroxy-6-(3-(methylamino)piperidin-1-yl)pyridin-2-yl)benzonitrile] | 
3 | 19.4 nM | > 1000 nM | N#Cc1ccc(-c2nc(N3CCC(N)CC3)cc(O)c2-c2ccn3ccnc3c2)cc1F [Example 17, 4-(6-(4-aminopiperidin-1-yl)-4-hydroxy-3-(imidazolo[1,2-a]pyridin-7-yl)pyridin-2-yl)-2-fluorobenzonitrile hydrochloride] | 
4 | 78.3 nM | 87.2 nM | N#Cc1ccc(-c2nc(N3CCC(N)CC3)cc(O)c2-c2ccc(OC(F)(F)F)c(F)c2)cc1F [Example 18, 4-(6-(4-aminopiperidin-1-y)-3-(3-fluoro-4-(trifluoromethoxy)phenyl)-4-hydroxypyridin-2-yl)-2-fluorobenzonitrile] | 
5 | 5.96 nM | > 1000 nM | N#Cc1ccc(-c2nc(N3CCC(N)CC3)cc(O)c2-c2ccc3oc(=O)[nH]c3c2)cc1F [Example 19, 4-(6-(4-aminopiperidin-1-yl)-4-hydroxy-3-(2-oxo-2,3-dihydrobenzo[d]oxazol-5-yl)pyridin-2-yl)-2-fluorobenzonitrile hydrochloride] | 
6 | 10.5 nM | 38.7 nM | N#Cc1ccc(-c2nc(N3CCC(N)CC3)cc(O)c2-c2ccc(N3CCOCC3)cc2)cc1F [Example 21, 4-(6-(4-aminopiperidin-1-yl)-4-hydroxy-3-(4-morpholinophenyl)pyridin-2-yl)-2-fluorobenzonitrile hydrochloride] | 
7 | 9.03 nM | 34.9 nM | COc1ccc(-c2c(O)cc(N3CCC(N)CC3)nc2-c2ccc(C#N)c(F)c2)cn1 [Example 22, 4-(6-(4-aminopiperidin-1-yl)-4-hydroxy-6′-methoxy-[3,3′-bipyridine]-2-yl)-2-fluorobenzonitrile] | 
8 | 71.7 nM | 868 nM | CC(C)(O)C#Cc1ccc(-c2c(O)cc(N3CCC(N)CC3)nc2-c2ccc(C#N)c(F)c2)cc1F [Example 25, 4-(6-(4-aminopiperidin-1-yl)-3-(3-fluoro-4-(3-hydroxy-3-methyl-1-alkynyl-1-yl)phenyl)-4-hydroxypyridin-2-yl)-2-fluorobenzonitrile hydrochloride] | 
9 | 77.5 nM | 446 nM | COc1ccc(C#Cc2c(O)cc(N3CCC(N)CC3)nc2-c2ccc(C#N)c(F)c2)cc1F [Example 27] | 
10 | 3.38 nM | 11.8 nM | N#Cc1ccc(-c2nc(N3CCC(N)CC3)cc(O)c2-c2ccc(OC(F)(F)F)c(O)c2)cc1F [Example 29, 4-(6-(4-aminopiperidin-1-yl)-4-hydroxy-3-(3-hydroxy-4-(trifluoromethoxy)phenyl)pyridin-2-yl)-2-fluorobenzonitrile hydrochloride] | 
11 | 51 nM | 77.2 nM | COc1ccc(-c2c(O)cc(N3CCC[C@@H](N)C3)nc2-c2ccc(C#N)c(F)c2)cc1F [Example 31, (R)-4-(6-(3-aminopiperidin-1-yl)-3-(3-fluoro-4-methoxyphenyl)-4-hydroxypyridin-2-yl)-2-fluorobenzonitrile hydrochloride] | 
12 | 48.8 nM | 262 nM | CC(C)(O)Cc1ccc(-c2c(O)cc(N3CCC(N)CC3)nc2-c2ccc(C#N)c(F)c2)c(F)c1 [Example 32, 4-(6-(4-aminopiperidin-1-yl)-3-(2-fluoro-4-(2-hydroxy-2-methylpropyl)phenyl)-4-hydroxypyridin-2-yl)-2-fluorobenzonitrile hydrochloride] | 
13 |  | 2.16 nM | COc1ccc(-c2c(-c3ccc(C#N)c(F)c3)nc(N3CCC(N)CC3)c3c2cnn3C)cc1O [Example 285, 4-(7-(4-aminopiperidin-1-yl)-4-(3-hydroxy-4-methoxyphenyl)-1-methyl-1H-pyrazolo[3,4-c]pyridin-5-yl)-2-fluorobenzonitrile] | 

The next lines start with the compound.

Row | Compound | IC50 (LSD1; [2]) | IC50 (NCI-H1417 cells; [3]) | further results
14 | 5′-(4-aminopiperidin-1l-yl)-3-fluoro-3′,3′-dihydroxy-4′-methyl-[1,1′:2′,1′-triphenyl]-4-carbonitrile [Example 266] |  |  | IC50 (NCI-H1417 cells; read-out: NCI-H1417 proliferation inhibition IC50): 0.48 nM; IC50 (LSD1; [1]): 0.7 ± 0.004 nM
15 | CS(=O)(=O)N1CCN(C(=O)c2cc(CN[C@@H]3C[C@H]3c3ccc(F)cc3)nc(-c3ccccc3)n2)CC1 [Example 1] | 186 ± 69.6 nM |  | IC50 (NCI-H1417 cells; NCI-H1417 cells, 7 days, CellTiter-Glo, read-out: NCI-H1417 proliferation inhibition IC50): 11.3 nM
16 | Cc1ccc(-c2c(-c3ccc(C#N)cc3)cc3c(N4CCC[C@@H](N)C4)nccn23)cc1 [Example 3, (R)-4-(1-(3-aminopiperidin-1-yl)-6-(p-tolyl)pyrrolo[1,2-a]pyrazine-7-yl)benzonitrile] | 0.8 ± 0.08 nM | 34.2 nM | 
17 | Cc1ccc(-c2c(-c3ccc(C#N)cc3)cc3c(N4CCC[C@@H](N)C4)nncn23)cc1 [Example 4, (R)-4-(1-(3-aminopiperidin-1-yl)-6-(p-tolyl)pyrrolo[1,2-d] [1,2,4]triazine-7-yl)benzonitrile] | 2.3 ± 0.74 nM | 30.4 nM | 
18 | Cc1ccc(-c2sc(C(=O)N3C4CCC3CC(N)C4)cc2-c2ccc(C#N)c(F)c2)c(F)c1 (stereo not drawn) [Example 6, 4-(5-(3-amino-8-azabicyclo[3.2.1]octane-8-carbonyl)-2-(2-fluoro-4-methylphenyl)thiophen-3-yl)-2-fluorobenzonitrile hydrochloride] | 0.3 ± 0.25 nM | 3.64 nM | 
19 | Cc1ccc(-c2sc(CN3C4CCC3CC(N)C4)cc2-c2ccc(C#N)c(F)c2)c(F)c1 (stereo not drawn) [Example 7, 4-(5-((3-amino-8-azabicyclo[3.2.1]octane-8-yl)methyl)-2-(2-fluoro-4-methylphenyl)thiophen-3-yl)-2-fluorobenzonitrile trifluoroacetate] |  | 46.4 nM | IC50 (LSD1): 0.4 ± 0.29 nM
20 | CCCCCc1noc2cc(-c3sc(C(=O)N4C5CCC4CC(N)C5)cc3-c3ccc(C#N)c(F)c3)c(F)cc12 (stereo not drawn) [Example 8, 4-(5-(3-amino-8-azabicyclo[3.2.1]octane-8-carbonyl)-2-(5-fluoro-3-pentylbenzo[d]isoxazol-6-yl)thiophen-3-yl)-2-fluorobenzonitrile] | 0.3 ± 0.04 nM | 6.94 nM | 
21 | Cc1ccc(-c2c(-c3ccc(C#N)cc3)cc3c(N4CCC[C@@H](N)C4)cccn23)cc1 [Example 10, (R)-4-(8-(3-aminopiperidin-1-yl)-3-(p-tolyl)indolizin-2-yl)benzonitrile hydrochloride] |  |  | IC50 (NCI-H1417 cells; Homo sapiens, NCI-H1417, 168 h, read-out: NCI-H1417 proliferation inhibition IC50(nM)): 371 nM; IC50 (LSD1; [1]): 79.1 ± 18.9 nM
22 | COc1ccc(-c2c(O)cc(N3C4CCC3CC(N)C4)nc2-c2ccc(C#N)c(F)c2)cc1F (stereo not drawn) [Example 14, 4-(6-(3-amino-8-azabicyclo[3.2.1]octane-8-yl)-3-(3-fluoro-4-methoxyphenyl)-4-hydroxypyridin-2-yl)-2-fluorobenzonitrile] | 13.8 nM | 64.9 nM | 
23 | Cc1noc2cc(-c3c(O)cc(N4C5CCC4CC(N)C5)nc3-c3ccc(C#N)c(F)c3)c(F)cc12 (stereo not drawn) [Example 24, 4-(6-(3-amino-8-azabicyclo[3.2.1]octane-8-yl)-3-(5-fluoro-3-methylbenzo[d]isoxazol-6-yl)-4-hydroxypyridin-2-yl)-2-fluorobenzonitrile] | 21.5 ± 20.5 nM | 252 nM | 
